Laboratory results: patent publication US10092570B2 (Incyte Corporation, priority 2011, dated 2018)
Where a name gives a salt, the structure may show the parent alone.

Biological target: PI3Kδ (p110δ/p85α) (Homo sapiens (Human), UniProt O00329)
Assay: Example A3: PI3Kδ scintillation proximity assay
Format: biochemical
Settings: scintillation proximity assay, 20 μM ATP, 4 nM PI3Kδ; read-out: PI3Kδ SPA IC50
Experimental: [γ-^33P]ATP (10 mCi/mL) was purchased from Perkin-Elmer (Waltham, Mass.). […] PI3Kδ (p110δ/p85α) was purchased from Millipore (Bedford, Mass.). ATP, MgCl2, DTT, EDTA, MOPS and CHAPS were purchased from Sigma-Aldrich (St. Louis, Mo.). Wheat Germ Agglutinin (WGA) YSi SPA Scintillation Beads was purchased from GE healthcare life sciences (Piscataway, N.J.).
The kinase reaction was conducted in polystyrene 384-well matrix white plate from Thermo Fisher Scientific in a final volume of 25 μL. Inhibitors were first diluted serially in DMSO and added to the plate wells before the addition of other reaction components. The final concentration of DMSO in the assay was 0.5%. The PI3K assays were carried out at room temperature in 20 mM MOPS, pH 6.7, 10 mM MgCl2, 5 mM DTT and CHAPS 0.03%. Reactions were initiated by the addition of ATP, the final reaction mixture consisted of 20 μM PIP2, 20 μM ATP, 0.2 μCi [γ-^33P] ATP, 4 nM PI3Kδ. […] 25 mM EDTA, 400 μM ATP. The final concentration of SPA beads was 1.0 mg/mL. After the plate sealing, plates were shaken overnight at room temperature and centrifuged at 1800 rpm for 10 minutes, the radioactivity of the product was determined by scintillation counting on Topcount (Perkin-Elmer). IC50 determination was performed by fitting the curve of percent control activity versus the log of the inhibitor concentration using the GraphPad Prism 3.0 software.

PI3Kδ (p110δ/p85α), sequence (O00329 whole entry): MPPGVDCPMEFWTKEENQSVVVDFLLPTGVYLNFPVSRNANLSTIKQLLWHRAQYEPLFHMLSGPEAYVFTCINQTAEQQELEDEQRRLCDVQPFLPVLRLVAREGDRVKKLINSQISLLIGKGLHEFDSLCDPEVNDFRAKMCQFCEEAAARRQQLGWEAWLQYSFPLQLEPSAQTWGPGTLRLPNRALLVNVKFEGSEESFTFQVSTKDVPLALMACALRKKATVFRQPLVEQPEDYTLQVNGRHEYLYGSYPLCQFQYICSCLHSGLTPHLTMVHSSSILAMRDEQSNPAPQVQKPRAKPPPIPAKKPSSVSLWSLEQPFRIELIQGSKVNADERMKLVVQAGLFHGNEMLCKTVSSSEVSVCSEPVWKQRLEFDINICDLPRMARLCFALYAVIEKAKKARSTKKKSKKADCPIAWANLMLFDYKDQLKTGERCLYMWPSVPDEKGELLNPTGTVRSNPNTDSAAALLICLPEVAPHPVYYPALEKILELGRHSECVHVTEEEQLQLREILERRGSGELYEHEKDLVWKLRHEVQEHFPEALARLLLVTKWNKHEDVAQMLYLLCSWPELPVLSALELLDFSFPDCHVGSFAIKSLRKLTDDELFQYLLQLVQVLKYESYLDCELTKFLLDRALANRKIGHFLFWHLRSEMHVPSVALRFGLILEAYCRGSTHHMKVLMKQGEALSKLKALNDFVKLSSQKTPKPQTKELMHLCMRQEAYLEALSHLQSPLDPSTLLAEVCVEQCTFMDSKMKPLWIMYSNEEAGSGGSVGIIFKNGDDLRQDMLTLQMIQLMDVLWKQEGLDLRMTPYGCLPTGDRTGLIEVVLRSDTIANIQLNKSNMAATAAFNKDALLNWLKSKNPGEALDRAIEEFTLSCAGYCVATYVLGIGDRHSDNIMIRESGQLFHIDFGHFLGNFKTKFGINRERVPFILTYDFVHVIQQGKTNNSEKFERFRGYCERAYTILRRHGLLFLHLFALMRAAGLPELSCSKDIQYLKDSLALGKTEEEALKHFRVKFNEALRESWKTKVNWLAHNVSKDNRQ
PI3Kδ (p110δ/p85α), sequence (P27986 whole entry partner): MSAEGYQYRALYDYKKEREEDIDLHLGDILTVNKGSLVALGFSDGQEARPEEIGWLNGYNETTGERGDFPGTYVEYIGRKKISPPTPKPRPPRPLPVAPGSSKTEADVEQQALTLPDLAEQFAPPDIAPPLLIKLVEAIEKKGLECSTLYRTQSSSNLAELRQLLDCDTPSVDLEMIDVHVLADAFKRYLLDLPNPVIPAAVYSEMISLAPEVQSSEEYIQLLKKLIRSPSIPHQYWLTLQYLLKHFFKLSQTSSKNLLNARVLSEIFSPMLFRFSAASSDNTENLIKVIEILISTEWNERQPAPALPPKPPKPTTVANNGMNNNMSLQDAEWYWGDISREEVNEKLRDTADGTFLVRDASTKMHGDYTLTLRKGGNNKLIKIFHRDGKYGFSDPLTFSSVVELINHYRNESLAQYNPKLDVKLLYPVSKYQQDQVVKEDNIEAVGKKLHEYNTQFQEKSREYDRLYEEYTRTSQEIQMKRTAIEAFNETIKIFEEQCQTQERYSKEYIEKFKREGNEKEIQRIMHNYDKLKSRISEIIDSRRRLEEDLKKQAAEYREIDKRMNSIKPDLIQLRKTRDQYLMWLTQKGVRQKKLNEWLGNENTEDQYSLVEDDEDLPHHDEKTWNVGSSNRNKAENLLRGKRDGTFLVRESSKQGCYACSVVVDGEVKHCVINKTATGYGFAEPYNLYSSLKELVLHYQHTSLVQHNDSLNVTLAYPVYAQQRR

CCNC(=O)c1c(C)c(Cl)cc(C(C)n2nc(C)c3c(N)ncnc32)c1-c1cc(F)cc(F)c1 (racemic) [Example 37, 6-[1-(4-amino-3-methyl-1H-pyrazolo[3,4-d]pyrimidin-1-yl)ethyl]-4-chloro-N-ethyl-3′,5′-difluoro-3-methylbiphenyl-2-carboxamide] was tested, and the IC50 was < 10 nM.
In the case of CNC(=O)[C@H](C)N1CC(c2c(C)c(C#N)cc(C(C)n3nc(C(F)F)c4c(N)ncnc43)c2OC)C1 (stereo partly drawn) [Example 134, (2S)-2-[3-(3-{1-[4-Amino-3-(difluoromethyl)-1H-pyrazolo[3,4-d]pyrimidin-1-yl]ethyl}-5-cyano-2-methoxy-6-methylphenyl)azetidin-1-yl]-N-methylpropanamide], the IC50 is reported as < 10 nM.
In the case of CCOc1c(C(C)n2nc(C)c3c(N)ncnc32)cc(C)c(C#N)c1C1CN(C(C)C)C1 (racemic) [Example 320, 4-[1-(4-amino-3-methyl-1H-pyrazolo[3,4-d]pyrimidin-1-yl)ethyl]-3-ethoxy-2-(1-isopropylazetidin-3-yl)-6-methylbenzonitrile], the IC50 is reported as < 10 nM.
In the case of CCOc1c(C(C)n2cc(C)c3c(N)ncnc32)cc(Cl)c(C#N)c1C1CN(C(C)C)C1 (centres unmarked) [Example 307, 4-[1-(4-Amino-5-methyl-7H-pyrrolo[2,3-d]pyrimidin-7-yl)ethyl]-6-chloro-3-ethoxy-2-(1-isopropylazetidin-3-yl)benzonitrile], the IC50 is reported as < 10 nM.
COc1c(C(C)n2nc(C)c3c(N)ncnc32)cc(Cl)c(C)c1C1CN(C(=O)c2cnn(C)c2)C1 (single isomer, unassigned) [Example 117, 1-[1-(5-Chloro-2-methoxy-4-methyl-3-{1-[(1-methyl-1H-pyrazol-4-yl)carbonyl]azetidin-3-yl}phenyl)ethyl]-3-methyl-1H-pyrazolo[3,4-d]pyrimidin-4-amine] was tested, and the IC50 was < 10 nM.
For CCNC(=O)c1c(C)c(Cl)cc(C(C)n2nc(-c3cn[nH]c3)c3c(N)ncnc32)c1OCC (racemic) [Example 87, 3-{1-[4-Amino-3-(1H-pyrazol-4-yl)-1H-pyrazolo[3,4-d]pyrimidin-1-yl]ethyl}-5-chloro-2-ethoxy-N-ethyl-6-methylbenzamide], the IC50 was < 10 nM.
For COc1c(C(C)n2nc(C)c3c(N)ncnc32)cc(Cl)c(Cl)c1C1CN(C[C@@H](C)O)C1 (stereo partly drawn) [Example 302, (2R)-1-(3-{3-[1-(4-Amino-3-methyl-1H-pyrazolo[3,4-d]pyrimidin-1-yl)ethyl]-5,6-dichloro-2-methoxyphenyl}azetidin-1-yl)propan-2-ol], the IC50 was < 10 nM.
COc1c(C(C)n2nc(C)c3c(N)ncnc32)cc(Cl)c(C)c1-c1ccnc(C(=O)N(C)C)c1 (centres unmarked) [Example 16, 4-{3-[1-(4-Amino-3-methyl-1H-pyrazolo[3,4-d]pyrimidin-1-yl)ethyl]-5-chloro-2-methoxy-6-methylphenyl}-N,N-dimethylpyridine-2-carboxamide] was tested, and the IC50 was < 10 nM.
CCC(=O)N1CC(c2c(C)c(Cl)cc(C(C)n3nc(C)c4c(N)ncnc43)c2OC)C1 (centres unmarked) [Example 3, 1-{1-[5-Chloro-2-methoxy-4-methyl-3-(1-propionylazetidin-3-yl)phenyl]ethyl}-3-methyl-1H-pyrazolo[3,4-d]pyrimidin-4-amine trifluoroacetate] was tested, and the IC50 was < 10 nM.
In the case of CCOc1c(C(C)n2nc(C)c3c(N)ncnc32)cc(Cl)c(C#N)c1C1CN(C(C)CO)C1 (single isomer, unassigned) [Example 224, 4-[1-(4-Amino-3-methyl-1H-pyrazolo[3,4-d]pyrimidin-1-yl)ethyl]-6-chloro-3-ethoxy-2-[1-(2-hydroxy-1-methylethyl)azetidin-3-yl]benzonitrile], the IC50 is reported as < 10 nM.
COc1c(C(C)n2nc(C)c3c(N)ncnc32)cc(Cl)c(C#N)c1C1CNC1 (single isomer, unassigned) [Example 261, 4-[1-(4-Amino-3-methyl-1H-pyrazolo[3,4-d]pyrimidin-1-yl)ethyl]-2-azetidin-3-yl-6-chloro-3-methoxybenzonitrile] was tested, and the IC50 was < 10 nM.
With CCOc1c(C(C)n2nc(C)c3c(N)ncnc32)cc(Cl)c(C)c1C1CN(C(C)C)C1 (centres unmarked) [Example 94, 1-{1-[5-Chloro-2-ethoxy-3-(1-isopropylazetidin-3-yl)-4-methylphenyl]ethyl}-3-methyl-1H-pyrazolo[3,4-d]pyrimidin-4-amine bis(trifluoroacetate)] the IC50 was < 10 nM.
For CCOc1c(C(C)n2nc(-c3cnn(CCO)c3)c3c(N)ncnc32)cc(Cl)c(C)c1-c1ccc(C(=O)N(C)C)nc1 (centres unmarked) [Example 52, 5-[3-(1-{4-amino-3-[1-(2-hydroxyethyl)-1H-pyrazol-4-yl]-1H-pyrazolo[3,4-d]pyrimidin-1-yl}ethyl)-5-chloro-2-ethoxy-6-methylphenyl]-N,N-dimethylpyridine-2-carboxamide bis(trifluoroacetate)], the IC50 was < 10 nM.
CCOc1c(C(C)n2nc(C)c3c(N)ncnc32)cc(Cl)c(C#N)c1N1CC(C#N)C1 (racemic) [Example 342, 1-{3-[1-(4-amino-3-methyl-1H-pyrazolo[3,4-d]pyrimidin-1-yl)ethyl]-5-chloro-6-cyano-2-ethoxyphenyl}azetidine-3-carbonitrile] was tested, and the IC50 was < 10 nM.
For COc1c(C(C)n2nc(C)c3c(N)ncnc32)cc(Cl)c(C#N)c1C1CN(C(C)=O)C1 (single isomer, unassigned) [Example 281, 2-(1-Acetylazetidin-3-yl)-4-[1-(4-amino-3-methyl-1H-pyrazolo[3,4-d]pyrimidin-1-yl)ethyl]-6-chloro-3-methoxybenzonitrile], the IC50 was < 10 nM.
With CCNC(=O)c1c(C)c(Cl)cc(C(C)n2nc(-c3ccc4[nH]ccc4c3)c3c(N)ncnc32)c1OCC (racemic) [Example 93, 3-{1-[4-Amino-3-(1H-indol-5-yl)-1H-pyrazolo[3,4-d]pyrimidin-1-yl]ethyl}-5-chloro-2-ethoxy-N-ethyl-6-methylbenzamide] the IC50 was < 10 nM.
In the case of COc1c(C(C)n2nc(C(F)F)c3c(N)ncnc32)cc(C#N)c(C)c1C1CN(C[C@@H](C)O)C1 (stereo partly drawn) [Example 132, 5-{1-[4-Amino-3-(difluoromethyl)-1H-pyrazolo[3,4-d]pyrimidin-1-yl]ethyl}-3-{1-[(2R)-2-hydroxypropyl]azetidin-3-yl}-4-methoxy-2-methylbenzonitrile], the IC50 is reported as < 10 nM.
With CCOc1c(C(C)n2nc(C)c3c(N)ncnc32)cc(C)c(C#N)c1-c1cnn(C)c1 (racemic) [Example 343, 4-[1-(4-amino-3-methyl-1H-pyrazolo[3,4-d]pyrimidin-1-yl)ethyl]-3-ethoxy-6-methyl-2-(1-methyl-1H-pyrazol-4-yl)benzonitrile] the IC50 was < 10 nM.
COc1c(C(C)n2nc(C(F)F)c3c(N)ncnc32)cc(C#N)c(C)c1C1CN(C(C)C)C1 (racemic) [Example 128, 5-{1-[4-amino-3-(difluoromethyl)-1H-pyrazolo[3,4-d]pyrimidin-1-yl]ethyl}-3-(1-isopropylazetidin-3-yl)-4-methoxy-2-methylbenzonitrile] was tested, and the IC50 was < 10 nM.
For CCNC(=O)c1c(C)c(Cl)cc(C(C)n2nc(-c3ccc4oc(N)nc4c3)c3c(N)ncnc32)c1OCC (racemic) [Example 89, 3-(1-(4-Amino-3-(2-aminobenzo[d]oxazol-5-yl)-1H-pyrazolo[3,4-d]pyrimidin-1-yl)ethyl)-5-chloro-2-ethoxy-N-ethyl-6-methylbenzamide], the IC50 was < 10 nM.
With CCOc1c(C(C)n2nc(C)c3c(N)ncnc32)cc(Cl)c(C#N)c1C1CN(C(=O)C(C)(C)O)C1 (single isomer, unassigned) [Example 247, 4-[1-(4-Amino-3-methyl-1H-pyrazolo[3,4-d]pyrimidin-1-yl)ethyl]-6-chloro-3-ethoxy-2-[1-(2-hydroxy-2-methylpropanoyl)azetidin-3-yl]benzonitrile] the IC50 was < 10 nM.
For CNC(=O)N1CC(c2c(C)c(Cl)cc(C(C)n3nc(C)c4c(N)ncnc43)c2OC)C1 (racemic) [Example 10, 3-{3-[1-(4-Amino-3-methyl-1H-pyrazolo[3,4-d]pyrimidin-1-yl)ethyl]-5-chloro-2-methoxy-6-methylphenyl}-N-methylazetidine-1-carboxamide], the IC50 was < 10 nM.
For COc1c(C(C)n2nc(-c3cn[nH]c3)c3c(N)ncnc32)cc(Cl)c(C)c1C1CN(CC#N)C1 (centres unmarked) [Example 126, [3-(3-{1-[4-Amino-3-(1H-pyrazol-4-yl)-1H-pyrazolo[3,4-d]pyrimidin-1-yl]ethyl}-5-chloro-2-methoxy-6-methylphenyl)azetidin-1-yl]acetonitrile], the IC50 was < 10 nM.
For COc1c(C(C)n2ccc(=O)c3c(N)ncnc32)cc(Cl)c(C)c1-c1cccnc1 (racemic) [Example 28, 4-Amino-8-[1-(5-chloro-2-methoxy-4-methyl-3-pyridin-3-ylphenyl)ethyl]pyrido[2,3-d]pyrimidin-5(8H)-one bis(trifluoroacetate)], the IC50 was < 10 nM.
CCOc1c(C(C)n2nc(C)c3c(N)ncnc32)cc(Cl)c(C)c1-c1cnn(C)c1 (single isomer, unassigned) [Example 197, 1-(1-(5-chloro-2-ethoxy-4-methyl-3-(1-methyl-1H-pyrazol-4-yl)phenyl)ethyl)-3-methyl-1H-pyrazolo[3,4-d]pyrimidin-4-amine] was tested, and the IC50 was < 10 nM.
In the case of CCN1CC(c2c(C)c(Cl)cc(C(C)n3nc(C)c4c(N)ncnc43)c2OC)C1 (racemic) [Example 6, 1-{1-[5-Chloro-3-(1-ethylazetidin-3-yl)-2-methoxy-4-methylphenyl]ethyl}-3-methyl-1H-pyrazolo[3,4-d]pyrimidin-4-amine], the IC50 is reported as < 10 nM.
